According to patent publication US20200270309A1, “MALEIMIDE GROUP-MODIFIED ANGIOGENESIS INHIBITOR HM-1 AND USE THEREOF” (NANJING ANJI BIOLOGICAL TECHNOLOGY CO., LTD, priority 2017, published 2020):
Marks after values point to notes of the source that are not given here. Peptide text beside a SMILES is read from it. * marks the point of attachment. X61 = O=C1C=CC(=O)N1c1cccc(CCCC(=O)*)c1

How the values were obtained:
HUVECs = test: Transwell migration inhibition on HUVECs; type: cell-based, human; conditions: for Inhibition rate (%): HUVEC migration vs blank control; for Cell migration number (Mean ± SD): HUVECs, transwell, 24 h
[1] = tested on: collagen-induced arthritis; test: Mouse collagen-induced arthritis (CIA) animal model; type: in vivo; conditions: DBA/1 mice CIA model, dose 4.0 mg/kg, subcutaneous from day 30, n=10
[2] = Half-lives and pharmacokinetic parameters of polypeptides vs HM-1; conditions: in vivo
[3] = tested on: choroidal neovascularization; test: Choroidal neovascularization in rats (laser photocoagulation, FFA); type: in vivo; conditions: BN rats
Summary of the method: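 Male BN rats aged 6-8 weeks were given 8 krypton-laser spots around the optic disc (647.1 nm, 350 mW, 50 μm, 0.05 s). Once the model was confirmed, groups of 5 got daily intravitreal compound at 0.05 μM or saline for 1 week. FFA followed at 3, 7, 14 and 28 days after dosing.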

[4] = tested on: corneal neovascularization; test: Corneal neovascularization induced by alkali burn in BALB/c mice; type: in vivo; parameters: Inhibition rate (corneal neovascularization): concentration or dose not given beside the values; conditions: day 14 after alkali burn, vitreous injection once a day for 1 week
[5] = tested on: human retinal capillary endothelial cells (HRCECs); test: MTT proliferation inhibition on HRCECs; type: cell-based; conditions: 48 h; for A570 nm-A630 nm: mean±SD
Summary of the method: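 HRCECs seeded at 3.0×10^4 cells/mL, adhered overnight, then exposed to polypeptide for 48 h at 37 °C, 5% CO2. MTT added 4 h, formazan dissolved in DMSO, absorbance 570/630 nm; PIR (%) = 1 − treated/negative control, mean±SD of three independent runs.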

[6] = tested on: xylene-induced ear swelling; test: Xylene-induced mouse ear swelling; type: in vivo; conditions: Kunming mice, injected once a day for 5 days; for Inhibition rate (%): xylene-induced ear swelling
Summary of the method: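 Kunming mice dosed by injection once daily for 5 days; 1 h after last dose, 0.05 mL xylene applied to right ear, left ear untreated. Mice killed 2 h later; punched ear pieces weighed. Swelling degree = right minus left ear weight; swelling rate = swelling degree/left ear weight ×100%.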

[7] = tested on: retinal neovascularization (OIR model); test: Retinal vessels in OIR mice; type: in vivo, C57/B16 mice
Summary of the method: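 C57/B16 pups were held in 75% oxygen from postnatal day 7 to 12, then returned to room air. On day 13 they received intravitreal saline or compound. On day 17 perfused vessels were labelled by Texas red tomato agglutinin injected into the left ventricle (5 min circulation) and retinal vasculature assessed.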

[8] = day 3 after administration, total light spot number was 297, 0.05 μM in the vitreous chamber once a day for 1 week
[9] = day 7 after administration, total light spot number was 186, 0.05 μM in the vitreous chamber once a day for 1 week
[10] = day 14 after administration, total light spot number was 137, 0.05 μM in the vitreous chamber once a day for 1 week
[11] = day 28 after administration, total light spot number was 69, 0.05 μM in the vitreous chamber once a day for 1 week

C[C@H](NC(=O)CNC(=O)[C@H](CCCNC(=N)N)NC(=O)CCCc1cccc(N2C(=O)C=CC2=O)c1)C(=O)N[C@@H](CC(=O)O)C(=O)N[C@@H](CCCNC(=N)N)C(=O)N[C@@H](C)C(=O)NCC(=O)NCC(=O)NCC(=O)NCC(=O)N[C@@H](CCCNC(=N)N)C(=O)NCC(=O)N[C@@H](CC(=O)O)C(=O)O [X27] (X61-RGADRAGGGGRGD-OH)
Inhibition rate (%) (HUVECs; dose 0.05 μM): 46.39%
Inhibition rate (%) (HUVECs; dose 0.1 μM): 49.01%
Inhibition rate (%) (HUVECs; dose 0.2 μM): 53.38%
Cell migration number (Mean ± SD) (HUVECs; dose 0.05 μM): 574.65 ± 60.83
Cell migration number (Mean ± SD) (HUVECs; dose 0.1 μM): 546.51 ± 46.67
Cell migration number (Mean ± SD) (HUVECs; dose 0.2 μM): 499.65 ± 59.06
Joint swelling degree (mm) [1]: 0.78 ± 0.19 mm
Left and right paw swelling degree (mm) [1]: 0.75 ± 0.13 mm
Clinical score ([1]; highest score 16): 8.75 ± 1.43
AUC(0-inf) [2]: 26200 ± 7250 ng·h/mL
MRT inf [2]: 46.9 ± 9.74 h
clearance [2]: 0.635 mL/min/kg
half-life ([2]; T1/2β (half-life)): 32.52 ± 0.25 h
CNV Incidence (%) [3, 8]: 54.88%
Leakage Light spot number [3, 8]: 163
CNV Incidence (%) [3, 9]: 46.24%
Leakage Light spot number [3, 9]: 86
CNV Incidence (%) [3, 10]: 42.34%
Leakage Light spot number [3, 10]: 58
CNV Incidence (%) [3, 11]: 36.23%
Leakage Light spot number [3, 11]: 25
Inhibition rate (corneal neovascularization) [4]: 43.93%
MVD (corneal microvessel density) [4]: 37.70 ± 3.805
Inhibition rate (%) ([5]; dose 0.05 μM): 49.84%*
A570 nm-A630 nm ([5]; dose 0.05 μM): 0.6629 ± 0.02448
Inhibition rate (%) ([5]; dose 0.1 μM): 56.47%**
A570 nm-A630 nm ([5]; dose 0.1 μM): 0.5753 ± 0.02814
Inhibition rate (%) ([5]; dose 0.2 μM): 56.64%*
A570 nm-A630 nm ([5]; dose 0.2 μM): 0.5731 ± 0.04774
Swelling degree ([6]; dose 2 mg/kg, right minus left ear piece weight 2 h after xylene): 5.36 ± 0.32 mg
Inhibition rate (%) ([6]; dose 2 mg/kg): 13.96%
Swelling degree (mg) ([6]; dose 4 mg/kg, right minus left ear piece weight 2 h after xylene): 4.76 ± 0.89* mg
Inhibition rate (%) ([6]; dose 4 mg/kg): 23.60%
Swelling degree (mg) ([6]; dose 8 mg/kg, right minus left ear piece weight 2 h after xylene): 3.13 ± 0.38* mg
Inhibition rate (%) ([6]; dose 8 mg/kg): 27.13%
Area of neovascular plexus (mm^2) ([7]; dose 0.05 μM in the vitreous chamber on day 13, retinal vessels evaluated on day 17): 0.106 ± 0.002 mm^2
Inhibition rate (%) ([7]; dose 0.05 μM in the vitreous chamber on day 13, retinal vessels evaluated on day 17, vs negative control): 50.00%**
